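These data come from cells grown in 96-well plates and exposed to compound for 48 hours at five concentrations. GI50: concentration for 50% inhibition of growth.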 The source made the active and inactive calls. Cut-off read from the data, not from the text of the source: active = GI50 up to about 1.1 µM and inactive = higher.
Legend:
Experiment in all cases: NCI tumour cell line growth inhibition, 48 h
[1] = system: SW-620
[2] = system: IGROV-1
[3] = system: COLO 205
[4] = system: 786-0
[5] = system: SK-MEL-2
[6] = system: MDA-MB-435
[7] = system: HOP-62
[8] = system: OVCAR-4
[9] = system: NCI-H460
[10] = system: ACHN
[11] = system: NCI-H23
[12] = system: SNB-19
[13] = system: TK-10
[14] = system: A498
[15] = system: KM12
[16] = system: MCF7
[17] = system: SF-539
[18] = system: M14
[19] = system: HCT-15
[20] = system: SK-MEL-5
[21] = system: HL-60
[22] = system: HCT-116
[23] = system: SNB-75
[24] = system: CCRF-CEM
[25] = system: HT-29
[26] = system: DU-145
[27] = system: UO-31
[28] = system: K562
[29] = system: Malme-3M
[30] = system: BT-549
[31] = system: EKVX
[32] = system: OVCAR-3
[33] = system: SR
[34] = system: RPMI-8226
[35] = system: SF-268
[36] = system: MDA-MB-231
[37] = system: NCI-H226
[38] = system: NCI/ADR-RES
[39] = system: SN12C
[40] = system: LOX IMVI
[41] = system: MOLT-4
[42] = system: SF-295
[43] = system: HOP-92
[44] = system: UACC-257
[45] = system: MDA-N
[46] = system: SK-MEL-28
[47] = system: HCC 2998
[48] = system: U-251
[49] = system: RXF 393
[50] = system: CAKI-1
[51] = system: OVCAR-5
[52] = system: OVCAR-8
[53] = system: PC-3
[54] = system: A549

C/C(=N\Nc1ccccc1Br)c1cccc(/C(C)=N/Nc2ccccc2Br)n1
GI50 [1]: > 100 µM (inactive) | GI50 [2]: 80.7 µM (inactive) | GI50 [3]: 68.2 µM (inactive) | GI50 [4]: 84.5 µM (inactive) | GI50 [5]: 39 µM (inactive) | GI50 [6]: 30 µM (inactive) | GI50 [7]: 49.8 µM (inactive) | GI50 [8]: > 100 µM (inactive) | GI50 [9]: > 100 µM (inactive) | GI50 [10]: > 100 µM (inactive) | GI50 [11]: > 100 µM (inactive) | GI50 [12]: 63.1 µM (inactive) | GI50 [13]: 69.7 µM (inactive) | GI50 [14]: 45.9 µM (inactive) | GI50 [15]: 52.6 µM (inactive) | GI50 [16]: 54.1 µM (inactive) | GI50 [17]: 88.5 µM (inactive) | GI50 [18]: > 100 µM (inactive) | GI50 [19]: > 100 µM | GI50 [20]: > 100 µM (inactive) | GI50 [21]: > 100 µM (inactive) | GI50 [22]: > 100 µM (inactive) | GI50 [23]: 13 µM (inactive) | GI50 [24]: > 100 µM (inactive) | GI50 [25]: > 100 µM (inactive) | GI50 [26]: > 100 µM (inactive) | GI50 [27]: > 100 µM (inactive) | GI50 [28]: 39.7 µM (inactive) | GI50 [29]: 66.8 µM (inactive) | GI50 [30]: > 100 µM (inactive) | GI50 [31]: > 100 µM (inactive) | GI50 [32]: 68.1 µM (inactive) | GI50 [33]: > 100 µM (inactive) | GI50 [34]: > 100 µM (inactive) | GI50 [35]: 59 µM (inactive) | GI50 [36]: 43.4 µM (inactive) | GI50 [37]: > 100 µM (inactive) | GI50 [38]: > 100 µM (inactive) | GI50 [39]: > 100 µM (inactive) | GI50 [40]: > 100 µM (inactive) | GI50 [41]: > 100 µM (inactive) | GI50 [42]: 34.4 µM (inactive) | GI50 [43]: 81.5 µM (inactive) | GI50 [44]: > 100 µM (inactive) | GI50 [45]: 31.7 µM (inactive) | GI50 [46]: > 100 µM (inactive) | GI50 [47]: > 100 µM (inactive) | GI50 [48]: > 100 µM (inactive) | GI50 [49]: 19.7 µM (inactive) | GI50 [50]: 49 µM (inactive) | GI50 [51]: > 100 µM (inactive) | GI50 [52]: > 100 µM (inactive) | GI50 [53]: 42.8 µM (inactive) | GI50 [54]: > 100 µM (inactive)

Source: ChEMBL document CHEMBL1201862, “PubChem BioAssay data set” (2004)
